From PubChem BioAssay (NCI)
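Values below derive from 48-hour exposures of cells grown in 96-well plates, with endpoints linearly interpolated between the two concentrations bracketing the appropriate inhibition level. GI50 marks 50% less growth. At the TGI there is no net growth.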

Tests used:
Assay in all cases: NCI tumour cell line growth inhibition, 48 h
[1] = tested on: CCRF-CEM leukemia
[2] = tested on: EKVX NSCLC
[3] = tested on: HCT-15 colon
[4] = tested on: HOP-62 NSCLC
[5] = tested on: IGROV1 ovarian
[6] = tested on: M14 melanoma
[7] = tested on: MOLT-4 leukemia
[8] = tested on: NCI-H226 lung
[9] = tested on: NCI/ADR-RES ovarian
[10] = tested on: PC-3 prostate

SMILES	TGI [1] [µM]	TGI [2] [µM]	TGI [3] [µM]	TGI [4] [µM]	TGI [5] [µM]	TGI [6] [µM]	TGI [7] [µM]	TGI [8] [µM]	TGI [9] [µM]	TGI [10] [µM]	GI50 [1] [µM]	GI50 [2] [µM]	GI50 [3] [µM]	GI50 [4] [µM]	GI50 [5] [µM]	GI50 [6] [µM]	GI50 [7] [µM]	GI50 [8] [µM]	GI50 [9] [µM]	GI50 [10] [µM]
Fc1cccc(Cl)c1/C=N\N=C1c2ccccc2-c2ccccc21	> 100	> 100	> 100	> 100	> 100	> 100	> 100	> 100	> 100	> 100	–	–	–	–	–	–	–	–	–	–
Nc1ccc(S(=O)(=O)NCc2nccs2)cc1	38.2	40.7	83.8	> 100	56.8	37.2	69	59	62.7	> 100	–	–	–	–	–	–	–	–	–	–
Oc1ccccc1-c1nc2c3ccccc3c3ccccc3c2[nH]1	16.8	20.6	17.9	15	14.4	24	10.7	20.9	25.6	14.8	4.6	4.33	5.31	3.93	0.0614	11.7	2.76	7.85	8.43	3.49
O=Cc1ccc(-c2cccs2)s1	> 100	> 96.6	> 100	> 100	47.4	> 100	> 100	4.85	> 100	> 100	–	–	–	–	–	–	–	–	–	–
CC1CCN(CC(=O)N2c3ccccc3Sc3cc4ccccc4cc32)CC1	> 100	> 100	> 100	> 100	> 100	> 100	> 100	> 100	> 100	> 100	–	–	–	–	–	–	–	–	–	–
Cc1cc(N/N=C/c2nc(-c3ccc(Cl)cc3)oc2C)c2cc(Cl)ccc2n1	7.18	28.3	3.66	3.76	12.6	4.13	9.11	38.3	5.63	4.81	1.59	14.6	1.68	1.92	3.38	1.96	2.34	17	2.19	2.1
N#C[C@@H]1C(n2ccc(N)nc2=O)O[C@H](CO)[C@H]1O (stereo not given in full)	> 100	> 100	> 100	> 100	> 100	> 100	> 100	> 100	> 100	> 100	0.135	> 100	> 100	3.97	> 100	2.97	0.107	> 57	12.9	97.4
Cn1c(=O)c2c(ncn2CN2CCN(Cn3cnc4c3c(=O)n(C)c(=O)n4C)CC2)n(C)c1=O	39.5	> 100	> 100	> 100	> 100	> 100	41.4	> 100	> 100	> 100	–	–	–	–	–	–	–	–	–	–
COC1CC(OC(=O)c2ccccc2)C(OC(=O)c2ccccc2)C(C)O1 (stereo not given)	> 100	> 100	> 100	> 100	> 100	> 100	> 100	> 100	> 100	> 100	–	–	–	–	–	–	–	–	–	–
NC(=O)c1ccc(C2C3=C(CCCC3=O)OC3=C2C(=O)c2ccccc2C3=O)cc1 (stereo not given)	2.21	2.83	3.37	2.72	2.12	2.03	1.4	3.96	22.5	1.86	0.35	0.687	1.4	1.35	0.641	0.609	0.361	1.89	2.94	0.285
O=C1CC(=O)OC(c2ccc([N+](=O)[O-])cc2)O1	8.79	18.3	7.15	6.79	14.3	4	8.41	5.5	14.1	6.43	2.45	3.56	2.25	2.47	3.1	1.97	2.66	2.07	3.19	2.36
CC(C)(C)NC(=O)[C@H]1C[C@H]2CCCC[C@H]2CN1C[C@@H](O)[C@H](Cc1ccccc1)NC(=O)[C@H](CC(N)=O)NC(=O)c1ccc2ccccc2n1	28	> 59.9	33.8	30.7	38.8	28	21.8	32.8	44.3	26.8	9.31	3.57	14	15.2	15.4	13.3	1.9	15.4	19.4	7.17
C[C@]12CC[C@@H]3c4ccc(O)cc4C(O)C[C@H]3[C@@H]1CCC2=O (stereo not given in full)	> 100	> 100	> 100	> 100	> 100	> 100	> 100	> 100	> 100	> 100	> 100	48.8	> 100	> 100	58	> 100	> 100	> 100	> 100	> 100
O=C(O)CSc1ncccc1[N+](=O)[O-]	> 100	> 100	> 100	> 100	> 100	> 100	> 100	> 100	> 100	> 100	–	–	–	–	–	–	–	–	–	–
CSc1ccc(/C=C2\C=C(CC(=O)NCc3ccc(C(=O)c4ccccc4)cc3)c3cc(F)ccc32)cc1	38.9	> 100	> 51.3	3.38	17.7	4.16	> 36.7	0.903	0.187	13.1	0.0337	0.423	0.0492	0.0633	0.0848	0.0449	0.15	0.0951	0.0328	0.0473
